According to article PMC10108266, “Pharmacokinetic characteristics of golidocitinib, a highly selective JAK1 inhibitor, in healthy adult participants” (Frontiers in Immunology, 2023):
Read-outs that look alike come from different tables or passages of the source.

How the values were obtained:
[1] = JACKPOT2 single-ascending-dose plasma PK, healthy participants in USA; assay type: in vivo, human; settings: for Cmax / Tmax / AUC(0-inf) / Vd/F / half-life: human, plasma; for Cmax / AUC(0-inf): geometric mean (CV%)
Source text: This was a Phase I, randomized, double-blinded, placebo-controlled study to assess the safety, tolerability, and PK of golidocitinib in healthy participants in the USA. This study included two parts: part A (single-ascending-dose [SAD] and food effect [FE] cohorts) and part B (multiple-ascending-dose [MAD] cohorts). Please refer to Figure 1 for the study flowchart.
(§1) A total of 42 and 24 healthy participants were enrolled in part A and part B, respectively. In part A, a total of 30 participants were randomized into 5 SAD cohorts (n = 6 per cohort) and received a single dose of golidocitinib at different dose levels or a matching placebo in a 4:2 ratio. In the food effect cohort, a total of 12 participants were enrolled and received the study drug under fasted or fed conditions, with a sequential design. The 50 mg dose was selected based on available safety data after the completion of the SAD cohorts, and also on the outcomes from PK/PD modeling for potential efficacious dose for autoimmune disease. On Day 1, participants took a single dose of golidocitinib under fast condition. After a 14-day wash-out period, on Day 15, participants received another single dose of golidocitinib immediately after a standard high-fat meal. Food recipes and contents are consistent with that described in FDA Guidance for Food-Effect Bioavailability studies ([10]). For the fed condition, keeping fasted for at least 10 hours, participants started ingestion of high-fat meal 30 minutes prior to administration of golidocitinib. They had to finish the meal within 30 minutes or less, and no food was allowed for at least 4 hours post-dose. In part B, a total of 24 participants were randomized into 3 MAD cohorts, with 8 in each cohort (active:placebo = 6:2). In these cohorts, participants received golidocitinib at different dose levels or placebo once daily dosing for 14 days. Dose escalation was based on available PK and safety data in the previous cohorts.
(§2) In the SAD cohorts, serial blood samples were obtained on Day 1 at pre-dose, and at 0.5, 1, 1.5, 2, 3, 4, 6, 10, 14, 24 (Day 2), 48 (Day 3), 72 (Day 4), 120 (Day 6), 168 (Day 8) and 216 (Day 10) hours post-dose for plasma PK analysis. A similar sampling schedule was undertaken for the MAD cohorts on Day 1 and Day 14, with additional trough samples obtained on Days 5, Day 8, and Day 11. In the MAD cohorts, urine samples were collected on Day 14 during the collection intervals of 0-4, 4-10, and 10-24 hours following the last dose for urine PK analysis. Plasma and urine samples were analyzed by Frontage Laboratories Inc. (New Jersey, USA) using a validated LC/MS/MS bioanalytical method to determine golidocitinib concentrations. Cross validation in plasma was successful between Frontage Laboratories Inc. (New Jersey, USA) and Frontage Laboratories Inc. (Shanghai) using clinical samples and spiked quality control samples.
(§3) Non-compartmental PK analysis for golidocitinib concentrations was performed using Phoenix WinNonlin (Certara USA Inc., version 8.1).
(§4) Dose proportionality was concluded if the 90% confidence interval for the ratio of dose-normalized, geometric mean values (Rdnm) was contained completely within the range of 0.8 - 1.25 ([11], [12]).

[2] = tested on: CYP3A4/5 and flavin-containing monooxygenase enzyme (FMO); experiment: Enzymatic systems implicated in metabolism; assay type: in vitro ADME
[3] = JACKPOT2 multiple-ascending-dose plasma PK (once daily, 14 days); assay type: in vivo, human; settings: for Cmax / AUC(0-t) / Tmax: human, plasma, oral; for Cmax / AUC(0-t): geometric mean (CV%); for AUC(0-t): read-out: AUC0-24h; for Tmax: median (min, max)
Protocol: as §1, §2, §3, §4

[4] = In vitro binding to human plasma; assay type: in vitro ADME
[5] = 25 mg, 25 mg once daily, Day 14
[6] = 50 mg, 50 mg once daily, Day 14
[7] = 100 mg, 100 mg once daily, Day 1
[8] = 100 mg, 100 mg once daily, Day 14

COc1nn(C)cc1Nc1nccc(-c2c[nH]c3c(NC(=O)[C@@H](C)N4CCN(C)CC4)cccc23)n1 [golidocitinib, (2R)-N-[3-[2-[(3-Methoxy-1-methyl-pyrazol-4-yl)amino]pyrimidin-4-yl]-1H-indol-7-yl]-2-(4-methylpiperazin-1-yl)propenamide] showed a Cmax ([1]; oral, single dose 5 mg) of 5.14 ng/mL, a Tmax ([1]; oral, single dose 5 mg, median (min, max), read-out: tmax) of 8 h and an AUC(0-inf) ([1]; oral, single dose 20 mg) of 923 ng·h/mL. It also gave a Cmax ([1]; oral, single dose 20 mg) of 18.6 ng/mL, a Vd/F ([1]; oral, single dose 20 mg, mean (SD), read-out: Vz/F) of 1540 L and a half-life ([1]; oral, single dose 20 mg, median (min, max), read-out: t1/2 (converted)) of 51.3 h. For the same compound, the Tmax ([1]; oral, single dose 20 mg, median (min, max), read-out: tmax) was 8 h, the AUC(0-inf) ([1]; oral, single dose 50 mg) was 2340 ng·h/mL and the Cmax ([1]; oral, single dose 50 mg) was 48.5 ng/mL. It also gave a Vd/F ([1]; oral, single dose 50 mg, mean (SD), read-out: Vz/F) of 1420 L, a half-life ([1]; oral, single dose 50 mg, median (min, max), read-out: t1/2 (converted)) of 42.8 h and a Tmax ([1]; oral, single dose 50 mg, median (min, max), read-out: tmax) of 6 h. It also gave an AUC(0-inf) ([1]; oral, single dose 100 mg) of 5260 ng·h/mL, a Cmax ([1]; oral, single dose 100 mg) of 133 ng/mL and a Vd/F ([1]; oral, single dose 100 mg, mean (SD), read-out: Vz/F) of 1380 L. For the same compound, the half-life ([1]; oral, single dose 100 mg, median (min, max), read-out: t1/2 (converted)) was 50.4 h, the Tmax ([1]; oral, single dose 100 mg, median (min, max), read-out: tmax) was 2.5 h and the AUC(0-inf) ([1]; oral, single dose 150 mg) was 7260 ng·h/mL. The Cmax ([1]; oral, single dose 150 mg) was 232 ng/mL, the Vd/F ([1]; oral, single dose 150 mg, mean (SD), read-out: Vz/F) was 1400 L and the half-life ([1]; oral, single dose 150 mg, median (min, max), read-out: t1/2 (converted)) was 46.6 h. It also gave a Tmax ([1]; oral, single dose 150 mg, median (min, max), read-out: tmax) of 3 h, a Vd/F ([1]; single oral administration, US participants, read-out: mean Vz/F) of 1380 to 1540 L and a half-life ([1]; single oral administration, across the dose range, US participants, read-out: median terminal half-life (t1/2)) of 42.8 to 51.3 h. For the same compound, the Tmax ([1]; single oral administration, across the dose range, US participants, read-out: median tmax) was 2.5 to 8 h, the CL/F ([1]; single dose 20 mg, mean (SD)) was 21.7 (1.18) L/hr and the CL/F ([1]; single dose 50 mg, mean (SD)) was 22.1 (6.20) L/hr. For the same compound, the CL/F ([1]; single dose 100 mg, mean (SD)) was 19.2 (3.09) L/hr, the CL/F ([1]; single dose 150 mg, mean (SD)) was 21.9 (8.58) L/hr and the “enzymatic systems implicated in the metabolism” value [2] was “CYP3A4/5 and flavin-containing monooxygenase enzyme (FMO)”. It also gave a Cmax ([3]; 25 mg, 25 mg once daily, Day 1) of 33.8 ng/mL, an AUC(0-t) ([3]; 25 mg, 25 mg once daily, Day 1) of 536 ng·h/mL and a Tmax ([3]; 25 mg, 25 mg once daily, Day 1) of 6 h. It also gave a Cmax [3, 5] of 83.9 ng/mL, an AUC(0-t) [3, 5] of 1530 ng·h/mL and a Tmax [3, 5] of 6 h. It also gave a Cmax ([3]; 50 mg, 50 mg once daily, Day 1) of 62.1 ng/mL, an AUC(0-t) ([3]; 50 mg, 50 mg once daily, Day 1) of 1020 ng·h/mL and a Tmax ([3]; 50 mg, 50 mg once daily, Day 1) of 6 h. It also gave a Cmax [3, 6] of 169 ng/mL, an AUC(0-t) [3, 6] of 3190 ng·h/mL and a Tmax [3, 6] of 6 h. It also gave a Cmax [3, 7] of 149 ng/mL, an AUC(0-t) [3, 7] of 2490 ng·h/mL and a Tmax [3, 7] of 4 h. The Cmax [3, 8] was 375 ng/mL, the AUC(0-t) [3, 8] was 7190 ng·h/mL and the Tmax [3, 8] was 6 h. For the same compound, the “increase of Cmax and AUC0-24hr on day 14 compared to day 1 (accumulation)” value ([3]; multiple once-daily dosing) was 2-3 folds, the “time to steady-state plasma concentrations” value ([3]; once-daily dosing) was at most 14 days and the “bound to human plasma” value ([4]; human plasma of Caucasian and Chinese, in vitro) was ~ 63%. The fraction unbound ([4]; human, plasma, read-out: free fraction in plasma) was 0.373.
